The values that follow come from PMC5972026 (Journal of medicinal chemistry, 2017).

Molecules are shown by their SMILES. Entries after “also recorded” stand apart in the source; their conditions may differ. Counter-ions that a name gives are not always drawn.

The subject of experiment [1] is A/WSN/33 virus (H1N1 subtype), N31S/V27A M2. It is filed as cell-based, influenza A virus.
The target in experiment [2] is T1, A/M2 V27A mutant channel (Influenza A virus, UniProt P0DOF5, V27A). Format: cell-based.
Experiment [3] has as its system A/M2 S31N mutant channel. The following applies: cited from earlier work.
The target of experiment [4] is T1, A/M2 V27A mutant channel. Conditions: cited from earlier work.

In the case of `N=C(N)N1CCC(C23CC4CC(CC(C4)C2)C3)CC1` [Compound 7, N-amidyl-4-(1-adamantyl)piperidine hydrochloride], the “Antiviral activity in 46-h PRA” value in experiment [1] is “inactive”. Moreover, in experiment [2], the “Binding behaviour” value is “fast and weak binder”.

As for `C1CC(C23CC4CC(CC(C4)C2)C3)CCN1` [Compound 2, 4-(1-adamantyl)piperidine hydrochloride], the “Antiviral activity in 46-h PRA” value in experiment [1] is listed as “weak activity; also recorded: minimal antiviral activity”. The “Binding behaviour” value in experiment [2] is “fast and weak”.

`NC12CC3CC(CC(C3)C1)C2` [Amantadine, 1-aminoadamantane]: the IC50 (in general, the concentration that inhibits the measured activity by half) in experiment [3] is 200 µM. Also, the “Inhibition by 100 μM for 2 min (%)” value in experiment [2] is given as 8.9 ± 1.0%. For the same compound, the “Activity against the V27A mutant” value in experiment [4] was “totally inactive”.

In the case of `N=C(N)N1CCC(C=C2C3CC4CC(C3)CC2C4)CC1` [Compound 19, 4-[(adamantan-2-ylidene)methyl]piperidine-1-carboximidamide hydrochloride], the “Antiviral activity in 46-h PRA” value in experiment [1] was “inactive”.

For the compound `C1CCC(C23CC4CC(CC(C4)C2)C3)NC1` (stereo not drawn) [Compound 8, 2-(1-adamantyl)piperidine hydrochloride], the “Antiviral activity in 46-h PRA” value in experiment [1] was “inactive”. Also, in experiment [2], the “Binding behaviour” value is listed as “no remarkable binding at all” and the “Time after which inhibition is at steady-state” value is reported as ≤ 1 min.

Consider `C1CC(C2C3CC4CC(C3)CC2C4)CCN1` (stereo not drawn) [Compound 3, 4-(Adamantan-2-yl)piperidine hydrochloride], for which, in experiment [1], the “Antiviral activity in 46-h PRA” value is “inactive”.
